pKi: −log10 of the molar value.
Columns and labels:
human M2 receptor = human M2 receptor (Homo sapiens (Human), UniProt P08172); test: Radioligand (tritiated N-methylscopolamine) binding assay, M2; settings: CHO cell membranes expressing human M2; 1.5 nM tritiated N-methylscopolamine; 90 min, 37° C.; read-out: Ki against M2 receptor (Table 21, M2)
Method in brief: (§1)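 Membranes from CHO cells expressing the receptor were incubated with 1.5 nM radioligand and twelve compound concentrations (10 μM to […]) for 90 min at 37 °C in 50 mM HEPES, 100 mM NaCl, 5 mM MgCl2, 1 mM EDTA, pH 7.4. Bound radioligand was collected by filtration and counted, and Ki was derived from inhibition.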

human M5 receptor = human M5 receptor (Homo sapiens (Human), UniProt P08912); test: Radioligand (tritiated N-methylscopolamine) binding assay, M5; settings: CHO cell membranes expressing human M5; 1.5 nM tritiated N-methylscopolamine; 90 min, 37° C.; read-out: Ki against M5 receptor (Table 21, M5)
Method in brief: as §1

human M3 receptor = human M3 receptor (Homo sapiens (Human), UniProt P20309); test: Radioligand (tritiated N-methylscopolamine) binding assay, M3; settings: CHO cell membranes expressing human M3; 1.5 nM tritiated N-methylscopolamine; 90 min, 37° C.; read-out: Ki against M3 receptor (Table 21, M3)
Method in brief: as §1

human M4 receptor = human M4 receptor (Homo sapiens (Human), UniProt P08173); test: Radioligand (tritiated N-methylscopolamine) binding assay, M4; settings: Ki against the M4 receptor; membranes from CHO cells expressing human M4; tritiated N-methylscopolamine 1.5 nM; read-out: Ki
Method in brief: as §1

human M1 receptor = human M1 receptor (Homo sapiens (Human), UniProt P11229); test: Radioligand (tritiated N-methylscopolamine) binding assay, M1; settings: CHO cell membranes expressing human M1; 1.5 nM tritiated N-methylscopolamine; 90 min, 37° C.; read-out: Ki against M1 receptor (Table 21, M1)
Method in brief: as §1

Chain of human M3 receptor (P20309 whole entry): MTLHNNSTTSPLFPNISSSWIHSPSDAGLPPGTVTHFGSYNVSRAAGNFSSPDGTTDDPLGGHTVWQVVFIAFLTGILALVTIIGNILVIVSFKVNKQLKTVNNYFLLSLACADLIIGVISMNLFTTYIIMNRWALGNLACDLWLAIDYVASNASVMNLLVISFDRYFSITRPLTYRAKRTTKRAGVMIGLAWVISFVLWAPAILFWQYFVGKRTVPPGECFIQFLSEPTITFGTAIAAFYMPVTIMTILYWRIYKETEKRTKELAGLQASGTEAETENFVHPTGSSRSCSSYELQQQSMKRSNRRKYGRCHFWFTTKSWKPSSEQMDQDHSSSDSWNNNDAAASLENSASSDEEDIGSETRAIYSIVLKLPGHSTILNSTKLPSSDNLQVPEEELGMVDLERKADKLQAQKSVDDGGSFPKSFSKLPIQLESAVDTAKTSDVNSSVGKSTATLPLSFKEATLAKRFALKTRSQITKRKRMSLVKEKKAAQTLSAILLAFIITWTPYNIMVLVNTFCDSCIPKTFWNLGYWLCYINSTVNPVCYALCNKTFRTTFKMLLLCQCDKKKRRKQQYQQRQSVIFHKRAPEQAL
Chain of human M4 receptor (P08173 whole entry): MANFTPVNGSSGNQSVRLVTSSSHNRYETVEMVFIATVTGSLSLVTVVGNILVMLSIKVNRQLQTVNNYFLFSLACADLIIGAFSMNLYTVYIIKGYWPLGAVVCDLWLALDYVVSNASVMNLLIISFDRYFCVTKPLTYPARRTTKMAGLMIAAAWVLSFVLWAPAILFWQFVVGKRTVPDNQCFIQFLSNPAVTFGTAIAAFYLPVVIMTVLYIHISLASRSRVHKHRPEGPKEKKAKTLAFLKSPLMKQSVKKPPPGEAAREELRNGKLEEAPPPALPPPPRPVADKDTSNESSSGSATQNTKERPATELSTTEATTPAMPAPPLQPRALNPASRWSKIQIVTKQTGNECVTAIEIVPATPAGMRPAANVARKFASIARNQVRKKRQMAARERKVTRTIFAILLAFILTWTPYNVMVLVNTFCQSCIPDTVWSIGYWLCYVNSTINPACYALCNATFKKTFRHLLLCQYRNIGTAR
Chain of human M2 receptor (P08172 whole entry): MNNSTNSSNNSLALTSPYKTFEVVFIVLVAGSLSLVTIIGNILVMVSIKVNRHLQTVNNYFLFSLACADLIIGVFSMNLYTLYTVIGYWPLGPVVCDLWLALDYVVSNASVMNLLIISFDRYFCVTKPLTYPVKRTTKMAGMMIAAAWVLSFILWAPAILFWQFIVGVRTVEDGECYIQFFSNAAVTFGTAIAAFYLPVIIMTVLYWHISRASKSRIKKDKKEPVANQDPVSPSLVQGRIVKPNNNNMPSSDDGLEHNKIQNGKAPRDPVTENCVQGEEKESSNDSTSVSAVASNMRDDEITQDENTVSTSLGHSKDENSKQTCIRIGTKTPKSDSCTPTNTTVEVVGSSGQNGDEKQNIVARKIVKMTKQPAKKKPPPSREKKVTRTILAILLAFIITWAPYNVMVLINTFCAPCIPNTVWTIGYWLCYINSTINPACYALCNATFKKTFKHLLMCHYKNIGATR
Chain of human M5 receptor (P08912 whole entry): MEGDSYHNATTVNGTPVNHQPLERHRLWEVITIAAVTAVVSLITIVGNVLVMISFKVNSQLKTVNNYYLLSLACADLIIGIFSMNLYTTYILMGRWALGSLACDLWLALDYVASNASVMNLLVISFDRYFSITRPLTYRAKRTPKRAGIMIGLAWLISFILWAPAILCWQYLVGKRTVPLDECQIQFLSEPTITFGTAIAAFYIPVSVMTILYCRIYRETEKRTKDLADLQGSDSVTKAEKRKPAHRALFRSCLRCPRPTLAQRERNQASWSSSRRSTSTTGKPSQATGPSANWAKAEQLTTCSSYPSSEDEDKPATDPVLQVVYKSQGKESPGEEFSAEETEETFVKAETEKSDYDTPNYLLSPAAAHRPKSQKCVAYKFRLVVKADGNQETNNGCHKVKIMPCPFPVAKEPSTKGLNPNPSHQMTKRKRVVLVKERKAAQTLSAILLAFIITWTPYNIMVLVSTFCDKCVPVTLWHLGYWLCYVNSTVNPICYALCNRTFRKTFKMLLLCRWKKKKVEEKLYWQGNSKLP
Chain of human M1 receptor (P11229 whole entry): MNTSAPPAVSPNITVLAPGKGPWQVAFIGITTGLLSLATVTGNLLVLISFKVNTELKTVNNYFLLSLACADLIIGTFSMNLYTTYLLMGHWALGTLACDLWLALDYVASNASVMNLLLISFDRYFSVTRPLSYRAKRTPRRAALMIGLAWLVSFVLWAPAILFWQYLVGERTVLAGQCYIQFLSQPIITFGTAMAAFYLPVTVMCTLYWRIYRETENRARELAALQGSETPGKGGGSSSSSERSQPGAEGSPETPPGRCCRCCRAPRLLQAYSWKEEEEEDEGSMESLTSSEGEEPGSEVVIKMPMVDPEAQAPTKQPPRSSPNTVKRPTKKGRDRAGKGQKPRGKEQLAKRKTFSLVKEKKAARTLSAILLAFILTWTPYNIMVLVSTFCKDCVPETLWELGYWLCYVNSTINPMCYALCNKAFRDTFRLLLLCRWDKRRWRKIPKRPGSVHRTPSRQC

C[C@@H]1CN(c2ncc(C(F)(F)F)c(N)n2)C[C@H](C)N1C(=O)NCCC1CCN(Cc2ccccc2)CC1 [5-28, (2R,6S)-4-[4-amino-5-(trifluoromethyl)pyrimidin-2-yl]-N-[2-(1-benzylpiperidin-4-yl)ethyl]-2,6-dimethylpiperazine-1-carboxamide]
pKi (human M2 receptor): 6.00 to 7.00 | pKi (human M5 receptor): < 6.00 | pKi (human M3 receptor): < 6.00 | pKi (human M4 receptor): > 8.00 | pKi (human M1 receptor): 6.00 to 7.00

Cc1c(C(=O)NCCC2CCN(Cc3ccccc3)CC2)cnc2cc(-c3ccc(F)cc3F)nn12 [18-1, N-[2-(1-benzylpiperidin-4-yl)ethyl]-2-(2,4-difluorophenyl)-7-methyl-pyrazolo[1,5-a]pyrimidine-6-carboxamide]
pKi (human M2 receptor): 7.00 to 8.00 | pKi (human M5 receptor): < 6.00 | pKi (human M3 receptor): < 6.00 | pKi (human M4 receptor): > 8.00 | pKi (human M1 receptor): < 6.00

O=C(NCCC1CCN(Cc2ccccc2)CC1)C1CCN(c2cc(F)cc(F)c2)CC1 [10-22, N-[2-(1-benzylpiperidin-4-yl)ethyl]-1-(3,5-difluorophenyl)piperidine-4-carboxamide]
pKi (human M2 receptor): 6.00 to 7.00 | pKi (human M5 receptor): < 6.00 | pKi (human M3 receptor): < 6.00 | pKi (human M4 receptor): > 8.00 | pKi (human M1 receptor): < 6.00

Cc1ccccc1CN1CCC(CCNC(=O)N2CCN(c3ncc(C(F)(F)F)cn3)C[C@H]2C)CC1 [6-35, (2R)-2-methyl-N-(2-{1-[(2-methylphenyl)methyl]piperidin-4-yl}ethyl)-4-[5-(trifluoromethyl)pyrimidin-2-yl]piperazine-1-carboxamide]
pKi (human M2 receptor): 7.00 to 8.00 | pKi (human M5 receptor): < 6.00 | pKi (human M3 receptor): 6.00 to 7.00 | pKi (human M4 receptor): > 8.00 | pKi (human M1 receptor): 6.00 to 7.00

N#Cc1ccc(N2CCC(C(=O)NCCC3CCN(Cc4ccccc4)CC3)CC2)cc1OC(F)(F)F [10-13, N-[2-(1-benzylpiperidin-4-yl)ethyl]-1-[4-cyano-3-(trifluoromethoxy)phenyl]piperidine-4-carboxamide]
pKi (human M2 receptor): 6.00 to 7.00 | pKi (human M5 receptor): < 6.00 | pKi (human M3 receptor): < 6.00 | pKi (human M4 receptor): > 8.00 | pKi (human M1 receptor): 6.00 to 7.00

Nc1nc(N2CCN(C(=O)NCCC3CCN(Cc4ccccc4)CC3)CC2)ncc1C(F)(F)F [5-30, 4-[4-amino-5-(trifluoromethyl)pyrimidin-2-yl]-N-[2-(1-benzylpiperidin-4-yl)ethyl]piperazine-1-carboxamide]
pKi (human M2 receptor): 6.00 to 7.00 | pKi (human M5 receptor): < 6.00 | pKi (human M3 receptor): < 6.00 | pKi (human M4 receptor): > 8.00 | pKi (human M1 receptor): < 6.00

O=C(NCCC1CCN(Cc2ccccc2)CC1)c1ccc(-c2ccc(OC(F)(F)F)cc2)cc1 [9-7, N-[2-(1-benzylpiperidin-4-yl)ethyl]-4-[4-(trifluoromethoxy)phenyl]benzamide]
pKi (human M2 receptor): 6.00 to 7.00 | pKi (human M5 receptor): < 6.00 | pKi (human M3 receptor): < 6.00 | pKi (human M4 receptor): > 8.00 | pKi (human M1 receptor): 6.00 to 7.00

N#Cc1cc(N2CCC(C(=O)NCCC3(O)CCN(Cc4ccccc4)CC3)CC2)ccc1OC(F)(F)F [10-20, N-[2-(1-benzyl-4-hydroxypiperidin-4-yl)ethyl]-1-[3-cyano-4-(trifluoromethoxy)phenyl]piperidine-4-carboxamide]
pKi (human M2 receptor): 6.00 to 7.00 | pKi (human M5 receptor): < 6.00 | pKi (human M3 receptor): < 6.00 | pKi (human M4 receptor): > 8.00 | pKi (human M1 receptor): < 6.00

COc1cc(N2CCN(C(=O)NCCC3CCN(Cc4ccccc4)CC3)[C@H](C)C2)cc(F)c1C#N [22-32]
pKi (human M2 receptor): 6.00 to 7.00 | pKi (human M5 receptor): 6.00 to 7.00 | pKi (human M3 receptor): < 6.00 | pKi (human M4 receptor): > 8.00 | pKi (human M1 receptor): 6.00 to 7.00

C[C@H]1CN(c2ncc(C(F)(F)F)cn2)CCC1C(=O)NCCC1CCN(Cc2ccccc2)CC1 (stereo partly drawn) [20-2, (3R)-N-[2-(1-benzylpiperidin-4-yl)ethyl]-3-methyl-1-[5-(trifluoromethyl)pyrimidin-2-yl]piperidine-4-carboxamide]
pKi (human M2 receptor): 7.00 to 8.00 | pKi (human M5 receptor): 6.00 to 7.00 | pKi (human M3 receptor): 7.00 to 8.00 | pKi (human M4 receptor): > 8.00 | pKi (human M1 receptor): 7.00 to 8.00

C[C@@H]1CN(c2ccc(OC(F)(F)F)c(C#N)c2)CCN1C(=O)NC[C@@H](O)C1CCN(Cc2ccccc2)CC1 [3-21, (2R)-N-[(2S)-2-(1-benzylpiperidin-4-yl)-2-hydroxyethyl]-4-[3-cyano-4-(trifluoromethoxy)phenyl]-2-methylpiperazine-1-carboxamide]
pKi (human M2 receptor): 6.00 to 7.00 | pKi (human M5 receptor): < 6.00 | pKi (human M3 receptor): < 6.00 | pKi (human M4 receptor): > 8.00 | pKi (human M1 receptor): < 6.00

C[C@@H]1CN(c2ncc(Cl)cn2)C[C@H](C)N1C(=O)NCCC1CCN(Cc2ccccc2)CC1 [5-18, (2S,6R)-N-[2-(1-benzylpiperidin-4-yl)ethyl]-4-(5-chloropyrimidin-2-yl)-2,6-dimethylpiperazine-1-carboxamide]
pKi (human M2 receptor): 7.00 to 8.00 | pKi (human M5 receptor): < 6.00 | pKi (human M3 receptor): < 6.00 | pKi (human M4 receptor): > 8.00 | pKi (human M1 receptor): < 6.00

Cc1c(C(=O)NCCC2CCN(Cc3ccccc3)CC2)cnc2cc(-c3ccc(F)cc3)nn12 [18-4]
pKi (human M2 receptor): 6.00 to 7.00 | pKi (human M5 receptor): < 6.00 | pKi (human M3 receptor): < 6.00 | pKi (human M4 receptor): > 8.00 | pKi (human M1 receptor): 6.00 to 7.00

Cc1c(C(=O)NC[C@H](O)C2CCN(Cc3ccccc3)CC2)cnc2cc(-c3cccc(C(F)(F)F)c3)nn12 [17-6, N-[(2R)-2-(1-benzylpiperidin-4-yl)-2-hydroxyethyl]-7-methyl-2-[3-(trifluoromethyl)phenyl]pyrazolo[1,5-a]pyrimidine-6-carboxamide]
pKi (human M2 receptor): 6.00 to 7.00 | pKi (human M5 receptor): < 6.00 | pKi (human M3 receptor): < 6.00 | pKi (human M4 receptor): > 8.00 | pKi (human M1 receptor): < 6.00

C[C@@H]1CN(c2ccc(C#N)cc2)C[C@H](C)N1C(=O)NCCC1CCN(Cc2ccccc2)CC1 [22-2]
pKi (human M2 receptor): 6.00 to 7.00 | pKi (human M5 receptor): < 6.00 | pKi (human M3 receptor): < 6.00 | pKi (human M4 receptor): > 8.00 | pKi (human M1 receptor): < 6.00

C[C@@H]1CN(c2ccc(OC(F)(F)F)c(C#N)c2)CCN1C(=O)NCCC1(O)CCN(Cc2ccccc2)CC1 [3-5, (2R)-N-[2-(1-benzyl-4-hydroxypiperidin-4-yl)ethyl]-4-[3-cyano-4-(trifluoromethoxy)phenyl]-2-methylpiperazine-1-carboxamide]
pKi (human M2 receptor): 6.00 to 7.00 | pKi (human M5 receptor): < 6.00 | pKi (human M3 receptor): < 6.00 | pKi (human M4 receptor): > 8.00 | pKi (human M1 receptor): < 6.00

COc1ccc(N2C[C@@H](C)N(C(=O)NCCC3CCN(Cc4ccccc4)CC3)[C@@H](C)C2)cc1C#N [22-24]
pKi (human M2 receptor): 7.00 to 8.00 | pKi (human M5 receptor): < 6.00 | pKi (human M3 receptor): < 6.00 | pKi (human M4 receptor): > 8.00 | pKi (human M1 receptor): 6.00 to 7.00

C[C@@H]1CN(c2ccc(OC(F)(F)F)nc2)CCN1C(=O)NCCC1CCN(Cc2ccccc2)CC1 [3-8, (2R)-N-[2-(1-benzylpiperidin-4-yl)ethyl]-2-methyl-4-[6-(trifluoromethoxy)pyridin-3-yl]piperazine-1-carboxamide]
pKi (human M2 receptor): 7.00 to 8.00 | pKi (human M5 receptor): < 6.00 | pKi (human M3 receptor): 6.00 to 7.00 | pKi (human M4 receptor): > 8.00 | pKi (human M1 receptor): 6.00 to 7.00

O=C(NCCC1CCN(Cc2ccccc2)CC1)C1CCN(c2ccc(F)c(OC(F)(F)F)c2)CC1 [10-11, N-[2-(1-benzylpiperidin-4-yl)ethyl]-1-[4-fluoro-3-(trifluoromethoxy)phenyl]piperidine-4-carboxamide]
pKi (human M2 receptor): 6.00 to 7.00 | pKi (human M5 receptor): < 6.00 | pKi (human M3 receptor): < 6.00 | pKi (human M4 receptor): > 8.00 | pKi (human M1 receptor): 6.00 to 7.00

C[C@@H]1CN(c2cnc(C(F)(F)F)cn2)CCN1C(=O)NCCC1CCN(Cc2ccccc2)CC1 [22-22]
pKi (human M2 receptor): 7.00 to 8.00 | pKi (human M5 receptor): < 6.00 | pKi (human M3 receptor): < 6.00 | pKi (human M4 receptor): > 8.00 | pKi (human M1 receptor): 6.00 to 7.00

C[C@@H]1CN(c2cc(F)c(F)c(F)c2)CCN1C(=O)NCCC1CCN(Cc2ccccc2)CC1 [3-12, (2R)-N-[2-(1-benzylpiperidin-4-yl)ethyl]-2-methyl-4-(3,4,5-trifluorophenyl)piperazine-1-carboxamide]
pKi (human M2 receptor): 7.00 to 8.00 | pKi (human M5 receptor): < 6.00 | pKi (human M3 receptor): < 6.00 | pKi (human M4 receptor): > 8.00 | pKi (human M1 receptor): 6.00 to 7.00

C[C@@H]1CN(c2cc(F)c(C#N)c(F)c2)C[C@H](C)N1C(=O)NCCC1CCN(Cc2ccccc2)CC1 [22-9]
pKi (human M2 receptor): 7.00 to 8.00 | pKi (human M5 receptor): < 6.00 | pKi (human M3 receptor): < 6.00 | pKi (human M4 receptor): > 8.00 | pKi (human M1 receptor): 6.00 to 7.00

C[C@H]1CN(c2ccc(F)c(C#N)c2)CCN1C(=O)NCCC1CCN(Cc2ccccc2)CC1 [4-20, (2S)-N-[2-(1-benzylpiperidin-4-yl)ethyl]-4-(3-cyano-4-fluorophenyl)-2-methylpiperazine-1-carboxamide]
pKi (human M2 receptor): 7.00 to 8.00 | pKi (human M5 receptor): < 6.00 | pKi (human M3 receptor): < 6.00 | pKi (human M4 receptor): > 8.00 | pKi (human M1 receptor): 6.00 to 7.00

C[C@@H]1CN(c2cc(F)cc(C#N)c2)CCN1C(=O)NC[C@@H](O)C1CCN(Cc2ccccc2)CC1 [9-5, (2R)-N-[(2S)-2-(1-benzylpiperidin-4-yl)-2-hydroxyethyl]-4-(3-cyano-5-fluorophenyl)-2-methylpiperazine-1-carboxamide]
pKi (human M2 receptor): < 6.00 | pKi (human M5 receptor): < 6.00 | pKi (human M3 receptor): < 6.00 | pKi (human M4 receptor): > 8.00 | pKi (human M1 receptor): < 6.00

C[C@@H]1CN(c2ncc(C#N)cn2)C[C@H](C)N1C(=O)NCCC1CCN(Cc2ccccc2)CC1 [5-20, (2S,6R)-N-[2-(1-benzylpiperidin-4-yl)ethyl]-4-(5-cyanopyrimidin-2-yl)-2,6-dimethylpiperazine-1-carboxamide]
pKi (human M2 receptor): 6.00 to 7.00 | pKi (human M5 receptor): < 6.00 | pKi (human M3 receptor): < 6.00 | pKi (human M4 receptor): > 8.00 | pKi (human M1 receptor): < 6.00

C[C@@H]1CN(c2cc(F)c(Cl)c(F)c2)CCN1C(=O)NCCC1CCN(Cc2ccccc2)CC1 [22-13]
pKi (human M2 receptor): 7.00 to 8.00 | pKi (human M5 receptor): 6.00 to 7.00 | pKi (human M3 receptor): 6.00 to 7.00 | pKi (human M4 receptor): > 8.00 | pKi (human M1 receptor): 6.00 to 7.00

Source: US11033539B2, “Compounds of formulas (VII), (VIII), (IX), (XI), (XII), (XIII), and (XIV) as muscarinic receptor 4(M4) antagonists for treating neurological diseases” (Neurocrine Biosciences, Inc., priority 2015, dated 2021)
